Source: US9212164B2, “Pesticidal compositions and processes related thereto” (Dow AgroSciences LLC, priority 2012, dated 2015)

Legend:
[1] = system: Cabbage Looper (CL) (Trichoplusia ni); test: Bioassays on CL, 128-well diet tray assay; type: in vivo; settings: 168 h, 50 μg/cm^2 on artificial diet, second instar larvae, five to seven days, 25° C., read-out: CL Rating (percent mortality)
Procedure: (§1) Certain molecules disclosed in this document were tested against BAW, CEW and CL using procedures described in the following examples. In the reporting of the results, the “BAW & CEW & CL Rating Table” was used (See Table Section).
Bioassays on CL (Trichoplusia ni)
Bioassays on CL were conducted using a 128-well diet tray assay. One to five second instar CL larvae were placed in each well (3 mL) of the diet tray that had been previously filled with 1 mL of artificial diet to which 50 μg/cm^2 of the test compound (dissolved in 50 μL of 90:10 acetone-water mixture) had been applied (to each of eight wells) and then allowed to dry. Trays were covered with a clear self-adhesive cover, and held at 25° C., 14:10 light-dark for five to seven days. Percent mortality was recorded for the larvae in each well; activity in the eight wells was then averaged. The results are indicated in the table entitled “Table 4: Assay Results Part 2” (See Table Section).

[2] = system: Beet Armyworm (BAW) (Spodoptera exigua); test: Bioassays on BAW, 128-well diet tray assay; type: in vivo; settings: for mortality at 50 µg/cm2: Spodoptera exigua, 168 h, 50 μg/cm^2 on artificial diet, second instar larvae, five to seven days, 25° C., read-out: BAW Rating (percent mortality); for BAW Rating: Beet Armyworm, 128-well diet tray assay, rating C = Not Tested (omitted), D = no activity noticed
Procedure: as §1
Bioassays on BAW (Spodoptera exigua)
Bioassays on BAW were conducted using a 128-well diet tray assay. One to five second instar BAW larvae were placed in each well (3 mL) of the diet tray that had been previously filled with 1 mL of artificial diet to which 50 μg/cm^2 of the test compound (dissolved in 50 μL of 90:10 acetone-water mixture) had been applied (to each of eight wells) and then allowed to dry. Trays were covered with a clear self-adhesive cover, and held at 25° C., 14:10 light-dark for five to seven days. Percent mortality was recorded for the larvae in each well; activity in the eight wells was then averaged. The results are indicated in the tables entitled “Table 3: Assay Results Part 1” and “Table 4: Assay Results Part 2” (See Table Section).

Compound | mortality at 50 µg/cm2 [1] | mortality at 50 µg/cm2 [2] | BAW Rating [2]
CCc1cc(Cl)cc(C(/C=C/c2ccc(C(=O)NC3(C(=O)NCC(F)(F)F)CC3)c(Br)c2)C(F)(F)F)c1 (centres unmarked) [FA13] | 50 to 100% | 50 to 100% | –
O=C(NC1(C(=O)NCC(F)(F)F)CC1)c1ccc(/C=C/C(c2cc(Br)c(Cl)c(Br)c2)C(F)(F)F)cc1Br (centres unmarked) [FA6] | 50 to 100% | 50 to 100% | –
O=C(NC1(C(=O)NCC(F)(F)F)CC1)c1ccc(/C=C/C(c2cc(Cl)c(Cl)c(Cl)c2)C(F)(F)C(F)(F)F)cc1Br (centres unmarked) [Compound P1003] | 50 to 100% | 50 to 100% | –
Cc1cc(C(/C=C/c2ccc(C(=O)NC3(C(=O)NCC(F)(F)F)CC3)c(Br)c2)C(F)(F)F)cc(Cl)c1Cl (centres unmarked) [FA4] | 50 to 100% | 50 to 100% | –
COc1ccc(CNC(=O)C2(NC(=O)c3ccc(/C=C/C(c4cc(Cl)c(Cl)c(Cl)c4)C(F)(F)F)cc3Br)CC2)cc1 (centres unmarked) [FA33] | 50 to 100% | 50 to 100% | –
O=C(NC1(C(=O)NCc2ccc(C(F)(F)F)cc2)CC1)c1ccc(/C=C/C(c2cc(Cl)c(Cl)c(Cl)c2)C(F)(F)F)cc1Br (centres unmarked) [FA34] | 50 to 100% | 50 to 100% | –
COc1ccccc1NC(=O)C1(NC(=O)c2ccc(/C=C/C(c3cc(Cl)c(Cl)c(Cl)c3)C(F)(F)F)cc2Br)CC1 (centres unmarked) [FA39] | 0% | 0% | –
Cc1cc(C(/C=C/c2ccc(C(=O)NC3(C(=O)NCC(F)(F)F)CC3)c(Br)c2)C(F)(F)F)ccc1Cl (centres unmarked) [Compound P243] | 50 to 100% | 50 to 100% | –
O=C(NC1(C(=O)NCC(F)(F)F)CC1)c1ccc(/C=C/C(c2cc(Br)cc(Br)c2)C(F)(F)F)cc1Br (centres unmarked) [Compound P1183] | 50 to 100% | 50 to 100% | –
N#Cc1cc(C(/C=C/c2ccc(C(=O)NC3(C(=O)NCC(F)(F)F)CC3)c(C(F)(F)F)c2)C(F)(F)F)ccc1F (centres unmarked) [Compound P515] | 50 to 100% | 50 to 100% | –
CCCN(C)C(=O)C1(NC(=O)c2ccc(/C=C/C(c3cc(Cl)c(Cl)c(Cl)c3)C(F)(F)F)cc2Br)CC1 (centres unmarked) [FA42] | 50 to 100% | 50 to 100% | –
CCN(Cc1ccccc1)C(=O)C1(NC(=O)c2ccc(/C=C/C(c3cc(Cl)c(Cl)c(Cl)c3)C(F)(F)F)cc2Br)CC1 (centres unmarked) [FA45] | 50 to 100% | 50 to 100% | –
Cc1cc(/C=C/C(c2cc(Cl)c(Cl)c(Cl)c2)C(F)(F)F)ccc1C(=O)NC1(C(=O)NCC(F)(F)F)CCC1 (centres unmarked) [FA1] | 50 to 100% | 50 to 100% | –
CCNC(=O)C1(NC(=O)c2ccc(/C=C/C(c3cc(Cl)c(Cl)c(Cl)c3)C(F)(F)F)cc2C(F)(F)F)CC1 (centres unmarked) [Compound P1025] | 50 to 100% | 50 to 100% | –
CON(CC(F)(F)F)C(=O)C1(NC(=O)c2ccc(/C=C/C(c3cc(Cl)c(Cl)c(Cl)c3)C(F)(F)F)cc2C(F)(F)F)CC1 (centres unmarked) [FA49, (E)-N-(1-(Methoxy(2,2,2-trifluoroethyl)carbamoyl)cyclopropyl)-4-(4,4,4-trifluoro-3-(3,4,5-trichlorophenyl)but-1-en-1-yl)-2-(trifluoromethyl)benzamide] | 50 to 100% | 50 to 100% | –
O=C(NC1(C(=S)NCC(F)(F)F)CC1)c1ccc(/C=C/C(c2cc(Cl)c(Cl)c(Cl)c2)C(F)(F)F)cc1C(F)(F)F (centres unmarked) [Compound F6, (E)-4-(4,4,4-Trifluoro-3-(3,4,5-trichlorophenyl)but-1-enyl)-N-(1-(2,2,2-trifluoroethylcarbamothioyl)cyclopropyl)-2-(trifluoromethyl)benzamide] | 50 to 100% | 50 to 100% | –
O=C(NC1(C(=O)NCC(F)F)CC1)c1ccc(/C=C/C(c2cc(Cl)c(Cl)c(Cl)c2)C(F)(F)F)cc1C(F)(F)F (centres unmarked) [Compound P1015] | 50 to 100% | 50 to 100% | –
Cc1cc(/C=C/C(c2cc(Cl)c(Cl)c(Cl)c2)C(F)(F)F)ccc1C(=O)NC1(C(=S)NCC(F)(F)F)CC1 (centres unmarked) [Compound P1011] | 50 to 100% | 50 to 100% | –
O=C(NC1(C(=O)NCCF)CC1)c1ccc(/C=C/C(c2cc(Br)cc(Br)c2)C(F)(F)F)cc1C(F)(F)F (centres unmarked) [Compound P1200] | 50 to 100% | 50 to 100% | –
CC(F)(F)C(/C=C/c1ccc(C(=O)NC2(C(=O)NCC(F)(F)F)CC2)c(C(F)(F)F)c1)c1ccc(Cl)c(Cl)c1 (centres unmarked) [FA9] | 50 to 100% | 50 to 100% | –
O=C(NC1(C(=O)NCCF)CC1)c1ccc(/C=C/C(c2cc(Cl)c(Cl)c(Cl)c2)C(F)(F)F)cc1C(F)(F)F (centres unmarked) [Compound P1020] | 50 to 100% | 50 to 100% | –

Compound | mortality at 50 µg/cm2 [1] | mortality at 50 µg/cm2 [2] | BAW Rating [2]
Cc1cc(C(/C=C/c2ccc(C(=O)NC3(C(=O)NCC(F)(F)F)CC3)c(C(F)(F)F)c2)C(F)(F)F)cc(Cl)c1Cl (centres unmarked) [FA3] | 50 to 100% | 50 to 100% | –
COCCCNC(=O)C1(NC(=O)c2ccc(/C=C/C(c3cc(Cl)c(Cl)c(Cl)c3)C(F)(F)F)cc2Br)CC1 (centres unmarked) [FA18] | 50 to 100% | 50 to 100% | –
Cc1cc(C(/C=C/c2ccc(C(=O)NC3(C(=O)NCC(F)(F)F)CC3)c(C(F)(F)F)c2)C(F)(F)F)cc(C)c1Cl (centres unmarked) [FA14] | 50 to 100% | 50 to 100% | –
COCCN(C)C(=O)C1(NC(=O)c2ccc(/C=C/C(c3cc(Cl)c(Cl)c(Cl)c3)C(F)(F)F)cc2Br)CC1 (centres unmarked) [FA43] | 50 to 100% | 50 to 100% | –
O=C(NC1(C(=O)NCCn2ccnc2)CC1)c1ccc(/C=C/C(c2cc(Cl)c(Cl)c(Cl)c2)C(F)(F)F)cc1Br (centres unmarked) [FA24] | 0% | 0 to 50% | –
O=C(NC1(C(=O)NCC(F)(F)F)CC1)c1ccc(/C=C/C(c2ccc(Br)c(Br)c2)C(F)(F)F)cc1Br (centres unmarked) [Compound P423] | 50 to 100% | 50 to 100% | –
COc1ccc(NC(=O)C2(NC(=O)c3ccc(/C=C/C(c4cc(Cl)c(Cl)c(Cl)c4)C(F)(F)F)cc3Br)CC2)cc1 (centres unmarked) [FA40] | 50 to 100% | 50 to 100% | –
O=C(NC1(C(=O)NCC(F)(F)F)CC1)c1ccc(/C=C/C(c2cc(Cl)c(Cl)c(Cl)c2)C(F)(F)F)cc1Cl (centres unmarked) [Compound F1, (E)-2-Chloro-4-(4,4,4-trifluoro-3-(3,4,5-trichlorophenyl)but-1-enyl)-N-(1-(2,2,2-trifluoroethylcarbamoyl)cyclopropyl)benzamide] | 50 to 100% | 50 to 100% | –
O=C(NC1(C(=O)NCC(F)F)CC1)c1ccc(/C=C/C(c2cc(Br)cc(Br)c2)C(F)(F)F)cc1C(F)(F)F (centres unmarked) [Compound P1195] | 50 to 100% | 50 to 100% | –
O=C(NC1(C(=O)NCC(F)(F)F)CC1)c1ccc(/C=C/C(c2cc(F)cc(Br)c2)C(F)(F)F)cc1C(F)(F)F (centres unmarked) [Compound P200] | 50 to 100% | 50 to 100% | –
O=C(NC1(C(=O)NCC(F)(F)F)CC1)c1ccc(/C=C/C(c2ccc(Cl)c([N+](=O)[O-])c2)C(F)(F)F)cc1C(F)(F)F (centres unmarked) [Compound P470] | 50 to 100% | 50 to 100% | –
O=C(NC1(C(=O)NCC(F)(F)F)CC1)c1ccc(/C=C/C(c2cc(Cl)cc(Br)c2)C(F)(F)F)cc1C(F)(F)F (centres unmarked) [Compound P380] | 50 to 100% | 50 to 100% | –
N#Cc1cc(C(/C=C/c2ccc(C(=O)NC3(C(=O)NCC(F)(F)F)CC3)c(Br)c2)C(F)(F)F)ccc1F (centres unmarked) [Compound P513] | 50 to 100% | 50 to 100% | –
Cc1cc(C(/C=C/c2ccc(C(=O)NC3(C(=O)NCC(F)(F)F)CC3)c(C(F)(F)F)c2)C(F)(F)F)cc(C)c1F (centres unmarked) [Compound P335] | 50 to 100% | 50 to 100% | –
CCc1cc(Cl)cc(C(/C=C/c2ccc(C(=O)NC3(C(=O)NCC(F)(F)F)CC3)c(C(F)(F)F)c2)C(F)(F)F)c1 (centres unmarked) [FA10] | 50 to 100% | 50 to 100% | –
FC(F)(F)C(/C=C/c1ccc(-n2cncn2)cc1)c1ccccc1 (centres unmarked) [DC3] | – | – | B (More than 0 - Less than 50)
CCNC(=O)NCc1ccc(/C=C/C(c2cc(Cl)cc(Cl)c2)C(F)(F)F)cc1Cl (centres unmarked) [CC31, (E)-1-(2-Chloro-4-(3-(3,5-dichlorophenyl)-4,4,4-trifluorobut-1-en-1-yl)benzyl)-3-ethylurea] | – | – | B (More than 0 - Less than 50)
N#CCN1CCC(NC(=O)c2ccc(/C=C/C(c3cc(Cl)c(Cl)c(Cl)c3)C(F)(F)F)cc2Br)CC1 (centres unmarked) [AC107] | – | – | B (More than 0 - Less than 50)
O=C(NC1CCN(C2COC2)CC1)c1ccc(/C=C/C(c2cc(Cl)c(Cl)c(Cl)c2)C(F)(F)F)cc1Br (centres unmarked) [AC108, (E)-2-Bromo-N-(1-(oxetan-3-yl)piperidin-4-yl)-4-(4,4,4-trifluoro-3-(3,4,5-trichlorophenyl)but-1-en-1-yl)benzamide] | – | – | B (More than 0 - Less than 50)
O=C(NCCc1ccc(Cl)nc1)c1ccc(/C=C/C(c2cc(Cl)c(Cl)c(Cl)c2)C(F)(F)F)cc1Br (centres unmarked) [AC113] | – | – | B (More than 0 - Less than 50)
